From US7268124B2, “Geranylgeranyl pyrophosphate synthase inhibitors” (University of Iowa Research Foundation, priority 2004, dated 2007) come the findings set out here.

Where a name gives a salt, the structure may show the parent alone. Where only a bound is given, the exact number is not on record here.

What all share (format): biochemical
One assay addresses T1, FPP synthase (Homo sapiens, UniProt P14324).
T1 sequence (P14324 1-419): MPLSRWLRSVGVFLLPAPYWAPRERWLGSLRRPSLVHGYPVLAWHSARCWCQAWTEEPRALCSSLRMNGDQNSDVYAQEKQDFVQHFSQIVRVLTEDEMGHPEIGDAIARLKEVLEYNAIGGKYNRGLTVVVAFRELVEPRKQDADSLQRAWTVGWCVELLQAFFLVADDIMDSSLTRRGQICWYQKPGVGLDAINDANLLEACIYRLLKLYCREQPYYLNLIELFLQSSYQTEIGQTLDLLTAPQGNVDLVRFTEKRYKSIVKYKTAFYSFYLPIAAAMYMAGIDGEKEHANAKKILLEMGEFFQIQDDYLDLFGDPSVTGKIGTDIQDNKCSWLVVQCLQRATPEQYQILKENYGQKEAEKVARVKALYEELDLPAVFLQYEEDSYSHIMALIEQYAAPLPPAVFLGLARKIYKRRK
The experiment in a line: FPP synthase enzyme inhibition. The note with it: mammalian enzyme; also no inhibition at 1 to 10 nanomolar; read-out: FPP synthase: not inhibited at concentrations as high as. The source says:
(§1) The ability of a compound of the invention to act as an inhibitor of geranylgeranyl pyrophosphate synthase may be determined using pharmacological models which are well known to the art, for example see Holstein, S. A., et al., Biochemistry 2003, 42, 4384-4391; and Ericsson et al, J. Biological Chemistry, 1993, 268, 832-838. The ability of a compound to inhibit FPP synthase, FPTase, and GGPTase can also be determined using pharmacological models which are well known to the art. The selectivity of a compound as an inhibitor of geranylgeranyl pyrophosphate synthase can be evaluated by comparing it's inhibitory activity against this enzyme with it's activity against another enzyme.

In the next assay the target is FPTase (Homo sapiens, UniProt P49356). The experiment in a line: FPTase enzyme inhibition. The settings on record: mammalian enzyme; also no inhibition at 1 to 10 nanomolar; read-out: FPTase: not inhibited at concentrations as high as.
From the text: as §1, with “enzyme. In one embodiment of the invention, the compound of the invention is at least 2-fold selective for inhibiting geranylgeranyl pyrophosphate synthase compared to farnesylpyrophosphate. In another embodiment the compound is at least 10-fold selective for inhibiting geranylgeranyl pyrophosphate synthase compared to farnesylpyrophosphate. In another embodiment the compound is at least about 100-fold selective for inhibiting geranylgeranyl pyrophosphate synthase compared to farnesylpyrophosphate. In another embodiment of the invention, the compound of the invention is at least 2-fold selective for inhibiting geranylgeranyl pyrophosphate synthase compared to FPTase or GGPTase. […]” for “enzyme.”

Another assay deals with T2, mammalian GGPP synthase (Homo sapiens, UniProt O95749).
T2 sequence (O95749 1-300): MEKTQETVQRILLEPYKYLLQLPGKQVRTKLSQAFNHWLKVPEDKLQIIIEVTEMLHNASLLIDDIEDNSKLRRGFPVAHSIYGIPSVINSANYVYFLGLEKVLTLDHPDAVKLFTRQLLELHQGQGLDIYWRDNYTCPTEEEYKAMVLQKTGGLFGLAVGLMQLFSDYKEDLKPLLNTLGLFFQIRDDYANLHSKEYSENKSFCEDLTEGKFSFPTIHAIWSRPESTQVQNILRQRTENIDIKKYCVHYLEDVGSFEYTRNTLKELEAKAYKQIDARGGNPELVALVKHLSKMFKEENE
The experiment in a line: GGPP synthase enzyme inhibition. The note with it: read-out: concentration range that inhibits GGPP synthase by 50%.
From the text: as §1

`CC(C)=CCC/C(C)=C/CC(C/C=C(\C)CCC=C(C)C)(P(=O)(O)O)P(=O)(O)O` [Compound 12, 1-(3,7-dimethyl-octa-2,6-dienyl)-4,8-dimethyl-nona-3,7-dienyl-1,1-bisphosphonic acid, tetrasodium salt]: the IC50 at FPP synthase and at FPTase was greater than 50 µM in each case.

Turning to `CC(C)=CCC/C(C)=C/CC(C/C=C(\C)CCC=C(C)C)(P(=O)(OCOC(=O)C(C)(C)C)OCOC(=O)C(C)(C)C)P(=O)(OCOC(=O)C(C)(C)C)OCOC(=O)C(C)(C)C` [Compound 13, tetrapivaloyloxymethyl (E)-1,1-bis(4,8-dimethyl-nona-3,7-dienyl)-1,1-bisphosphonate], the IC50 at mammalian GGPP synthase was 0.001 to 0.01 µM; on FPP synthase, greater than 50 µM; at FPTase, greater than 50 µM.
